In patent US8999976B2, “Modulators of cystic fibrosis transmembrane conductance regulator” (Vertex Pharmaceuticals Incorporated, priority 2008, dated 2015):
Structures can show the parent of a compound that is named as a salt.

Target: T1, ΔF508-CFTR (Homo sapiens, UniProt P13569, DEL508-508)
T1 construct: expressed in transfected cells
Assay: Membrane potential optical assay for potentiators of ΔF508-CFTR (FLIPR III, voltage sensing dyes)
Type: cell-based
Details: for Emax: NIH3T3, 100% efficacy is the maximum response obtained with 4-methyl-2-(5-phenyl-1H-pyrazol-3-yl)phenol, ΔF508 CFTR NIH 3T3 cells; for EC50: temperature-corrected ΔF508 CFTR NIH 3T3 cells, forskolin activation
Text: The assay utilizes fluorescent voltage sensing dyes to measure changes in membrane potential using a fluorescent plate reader (e.g., FLIPR III, Molecular Devices, Inc.) as a readout for increase in functional ΔF508-CFTR in NIH 3T3 cells.
To identify potentiators of ΔF508-CFTR, a double-addition HTS assay format was developed. This HTS assay utilizes fluorescent voltage sensing dyes to measure changes in membrane potential on the FLIPR III as a measurement for increase in gating (conductance) of ΔF508 CFTR in temperature-corrected ΔF508 CFTR NIH 3T3 cells.
Solutions • Bath Solution #1: (in mM) NaCl 160, KCl 4.5, CaCl2 2, MgCl2 1, HEPES 10, pH 7.4 with NaOH. • Chloride-Free Bath Solution: Chloride Salts in Bath Solution #1 are Substituted with Gluconate Salts.
NIH3T3 mouse fibroblasts stably expressing ΔF508-CFTR are used for optical measurements of membrane potential. The cells are maintained at 37° C. in 5% CO2 and 90% humidity in Dulbecco's modified Eagle's medium supplemented with 2 mM glutamine, 10% fetal bovine serum, 1×NEAA, β-ME, 1×pen/strep, and 25 mM HEPES in 175 cm^2 culture flasks. For all optical assays, the cells were seeded at ˜20,000/well in 384-well matrigel-coated plates and cultured for 2 hrs at 37° C. before culturing at 27° C. for 24 hrs. for the potentiator assay. For the correction assays, the cells are cultured at 27° C. or 37° C. with and without compounds for 16-24 hours. Electrophysiological Assays for assaying ΔF508-CFTR modulation properties of compounds.

T1 sequence (P13569 with tags, fused parts or gaps DEL508-508): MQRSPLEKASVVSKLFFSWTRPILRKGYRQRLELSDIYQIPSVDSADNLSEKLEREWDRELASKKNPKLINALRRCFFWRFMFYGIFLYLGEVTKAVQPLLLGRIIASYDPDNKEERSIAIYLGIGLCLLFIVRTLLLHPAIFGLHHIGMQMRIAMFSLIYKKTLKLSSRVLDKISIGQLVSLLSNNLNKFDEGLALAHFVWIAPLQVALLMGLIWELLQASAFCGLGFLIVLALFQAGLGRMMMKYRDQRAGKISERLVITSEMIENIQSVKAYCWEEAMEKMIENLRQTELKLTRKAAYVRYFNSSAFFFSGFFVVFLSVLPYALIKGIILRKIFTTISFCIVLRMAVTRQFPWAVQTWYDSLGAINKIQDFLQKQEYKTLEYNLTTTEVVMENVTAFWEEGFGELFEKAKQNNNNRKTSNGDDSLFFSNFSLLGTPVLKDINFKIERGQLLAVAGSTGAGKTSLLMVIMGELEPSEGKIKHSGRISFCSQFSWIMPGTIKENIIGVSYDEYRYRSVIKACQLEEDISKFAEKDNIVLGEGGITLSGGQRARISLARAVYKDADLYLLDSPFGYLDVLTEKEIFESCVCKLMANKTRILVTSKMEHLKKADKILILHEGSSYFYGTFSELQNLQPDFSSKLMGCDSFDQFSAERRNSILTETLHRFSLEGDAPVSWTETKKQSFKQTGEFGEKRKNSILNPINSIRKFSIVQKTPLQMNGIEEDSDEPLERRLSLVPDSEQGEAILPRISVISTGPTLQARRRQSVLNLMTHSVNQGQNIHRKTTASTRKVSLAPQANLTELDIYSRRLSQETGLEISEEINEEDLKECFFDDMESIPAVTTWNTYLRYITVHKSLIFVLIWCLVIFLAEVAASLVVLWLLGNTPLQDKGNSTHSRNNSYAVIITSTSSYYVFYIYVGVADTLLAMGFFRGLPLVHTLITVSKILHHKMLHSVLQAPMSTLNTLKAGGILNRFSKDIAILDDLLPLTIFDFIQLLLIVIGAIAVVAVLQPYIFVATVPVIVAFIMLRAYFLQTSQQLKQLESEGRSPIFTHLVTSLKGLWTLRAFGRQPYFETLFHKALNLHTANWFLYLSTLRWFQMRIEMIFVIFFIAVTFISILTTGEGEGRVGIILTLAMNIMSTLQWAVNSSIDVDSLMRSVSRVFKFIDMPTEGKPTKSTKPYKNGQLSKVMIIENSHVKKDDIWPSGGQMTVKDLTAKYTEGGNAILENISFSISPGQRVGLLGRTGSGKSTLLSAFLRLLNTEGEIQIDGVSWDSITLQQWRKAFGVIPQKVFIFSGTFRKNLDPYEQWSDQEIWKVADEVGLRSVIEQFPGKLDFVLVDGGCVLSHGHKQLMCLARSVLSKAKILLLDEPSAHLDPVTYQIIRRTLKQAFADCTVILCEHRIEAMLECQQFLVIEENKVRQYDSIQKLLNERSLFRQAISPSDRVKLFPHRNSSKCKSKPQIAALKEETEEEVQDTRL

| Emax [%] | EC50 [µM] | SMILES |
| --- | --- | --- |
| 25 to 100 | 5 to 20 | CC(C)Oc1c(O)cccc1NC(=O)C1CNc2ccc(F)cc2O1 (stereo not drawn) [Compound 112] |
| > 100 | < 5 | CC1CCN(Cc2cc(C3CCCC3)c(O)cc2NC(=O)C2CNc3cc(OC(F)(F)F)ccc3O2)CC1 (stereo not drawn) [Compound 117] |
| 25 to 100 | 5 to 20 | Cc1ccc(NC(=O)C2CNc3cc(OC(F)(F)F)ccc3O2)c(CCN2CC[C@@H](F)C2)c1 (stereo partly drawn) [Compound 119] |
| < 25 | < 5 | CC(C)(C)c1ccc(NC(=O)C2CNc3ccccc3[S+]2[O-])cc1O (stereo not drawn) [Compound 125, N-(4-tert-butyl-3-hydroxy-phenyl)-1-oxo-3,4-dihydro-2H-benzo[b][1,4]thiazine-2-carboxamide] |
| > 100 | < 5 | Cc1cc(CN2CCC(C)CC2)c(NC(=O)C2CNc3cc(OC(F)(F)F)ccc3O2)cc1O (stereo not drawn) [Compound 126] |
| 25 to 100 | < 5 | CC1(C(=O)Nc2cc(O)c(C3CCCC3)cc2C(F)(F)F)CNc2cc(OC(F)(F)F)ccc2O1 (stereo not drawn) [Compound 128] |

The next lines start with the molecule.

| SMILES | Emax [%] | EC50 [µM] |
| --- | --- | --- |
| CN1CCC(c2cc(C3CCCC3)c(O)cc2NC(=O)C2CNc3cc(C#N)ccc3O2)CC1 (stereo not drawn) [Compound 111, 6-cyano-N-(4-cyclopentyl-5-hydroxy-2-(1-methylpiperidin-4-yl)phenyl)-3,4-dihydro-2H-benzo[b][1,4]oxazine-2-carboxamide] | < 25 | 5 to 20 |
| N#Cc1ccc2c(c1)NCC(C(=O)Nc1cc(O)c(C3CCCC3)cc1C1CCNCC1)O2 (stereo not drawn) [Compound 113] | < 25 | 5 to 20 |
| CN(C)CC#Cc1cc(F)ccc1NC(=O)C1CNc2cc(C#N)ccc2O1 (stereo not drawn) [Compound 114] | 25 to 100 | 5 to 20 |
| CN(C(=O)C1CNc2ccccc2O1)c1ccc(C(C)(C)C)c(O)c1 (stereo not drawn) [Compound 115, N-(4-tert-butyl-3-hydroxyphenyl)-N-methyl-3,4-dihydro-2H-benzo[b][1,4]oxazine-2-carboxamide hydrochloride] | 25 to 100 | < 5 |
| Cc1ccc(NC(=O)C2CNc3cc(OC(F)(F)F)ccc3O2)c(CCN2CCOCC2)c1 (stereo not drawn) [Compound 116] | 25 to 100 | < 5 |
| CCc1cc(CN2CCC(C)CC2)c(NC(=O)C2CNc3cc(OC(F)(F)F)ccc3O2)cc1O (stereo not drawn) [Compound 118] | > 100 | < 5 |
| CC(C)(C)c1ccc(NC(=O)C2CNc3ccccc3S2)cc1O (stereo not drawn) [Compound 120, N-(4-tert-butyl-3-hydroxy-phenyl)-3,4-dihydro-2H-1,4-benzothiazine-2-carboxamide] | 25 to 100 | < 5 |
| CC(C)(C)c1ccc(NC(=O)C2CNc3ccccc3S2(=O)=O)cc1O (stereo not drawn) [Compound 121, N-(4-tert-butyl-3-hydroxy-phenyl)-1,1-dioxo-3,4-dihydro-2H-benzo[b][1,4]thiazine-2-carboxamide] | 25 to 100 | < 5 |
| CN(C)CC#Cc1cc(C2CCCC2)c(O)cc1NC(=O)C1CNc2cc(F)ccc2O1 (stereo not drawn) [Compound 123] | 25 to 100 | < 5 |
| Cc1cc2c(cc1F)NCC(C(=O)Nc1cc(O)c(C3CCCC3)cc1C#CCN(C)C)O2 (stereo not drawn) [Compound 124] | 25 to 100 | < 5 |
| Cc1cc(C#CCN(C)C)c(NC(=O)C2CNc3cc(OC(F)(F)F)ccc3O2)cc1C (stereo not drawn) [Compound 127] | 25 to 100 | < 5 |
| Cc1ccc(NC(=O)C2CNc3cc(OC(F)(F)F)ccc3O2)c(-c2nc(CN(C)C)no2)c1 (stereo not drawn) [Compound 129] | 25 to 100 | < 5 |
